Measurements: ChEMBL document CHEMBL5236572, “Bioactive Aurones, Indanones, and Other Hemiindigoid Scaffolds: Medicinal Chemistry and Photopharmacology Perspectives” (J Med Chem, 2022)
≈ marks a conversion by molar mass, not a printed value. Each block holds one molecule with its values, some of them ahead of it.

Columns and labels:
[1] = molecular target: Serine/threonine-protein kinase pim-1 (Homo sapiens, UniProt P11309); experiment: Inhibition of PIM1 (unknown origin) using poly-Glu-Tyr (4:1) as substrate in presence of [gamma-33P-ATP] incubated for 2 hrs by radiometric kinase assay
Chain of Serine/threonine-protein kinase pim-1 (P11309 whole entry): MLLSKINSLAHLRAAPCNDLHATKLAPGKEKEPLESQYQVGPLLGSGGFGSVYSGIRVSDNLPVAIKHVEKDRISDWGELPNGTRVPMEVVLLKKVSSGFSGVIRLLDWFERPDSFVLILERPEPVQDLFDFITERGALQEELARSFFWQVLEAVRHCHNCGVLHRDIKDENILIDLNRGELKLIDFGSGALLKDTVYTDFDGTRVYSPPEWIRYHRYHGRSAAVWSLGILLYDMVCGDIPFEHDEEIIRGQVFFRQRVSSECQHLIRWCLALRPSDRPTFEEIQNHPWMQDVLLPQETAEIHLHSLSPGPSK

[2] = molecular target: Glycogen synthase kinase-3 beta (Homo sapiens, UniProt P49841); experiment: Inhibition of recombinant GSK-3beta (unknown origin) using GS peptide as substrate in presence of ATP incubated for 1 hrs by ADP-Glo kinase assay
Chain of Glycogen synthase kinase-3 beta (P49841 whole entry): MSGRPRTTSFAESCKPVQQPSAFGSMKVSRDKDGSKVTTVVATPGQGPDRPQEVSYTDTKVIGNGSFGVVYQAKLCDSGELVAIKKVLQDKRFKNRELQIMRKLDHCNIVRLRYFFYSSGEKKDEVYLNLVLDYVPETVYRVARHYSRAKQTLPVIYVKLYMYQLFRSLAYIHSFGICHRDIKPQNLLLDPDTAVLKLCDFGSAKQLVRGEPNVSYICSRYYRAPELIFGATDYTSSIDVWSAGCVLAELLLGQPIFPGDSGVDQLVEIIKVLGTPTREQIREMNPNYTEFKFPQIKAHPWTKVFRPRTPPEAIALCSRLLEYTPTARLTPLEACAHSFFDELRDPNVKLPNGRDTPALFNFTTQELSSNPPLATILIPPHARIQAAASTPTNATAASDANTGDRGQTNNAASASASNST

[3] = molecular target: T1, Amine oxidase [flavin-containing] B (Homo sapiens, UniProt P27338); experiment: Inhibition of recombinant human MAO-B assessed as inhibition of 4-hydroxyquinoline formation using kynuramine as substrate incubated for 20 mins by fluorescence assay
T1 sequence (P27338 whole entry): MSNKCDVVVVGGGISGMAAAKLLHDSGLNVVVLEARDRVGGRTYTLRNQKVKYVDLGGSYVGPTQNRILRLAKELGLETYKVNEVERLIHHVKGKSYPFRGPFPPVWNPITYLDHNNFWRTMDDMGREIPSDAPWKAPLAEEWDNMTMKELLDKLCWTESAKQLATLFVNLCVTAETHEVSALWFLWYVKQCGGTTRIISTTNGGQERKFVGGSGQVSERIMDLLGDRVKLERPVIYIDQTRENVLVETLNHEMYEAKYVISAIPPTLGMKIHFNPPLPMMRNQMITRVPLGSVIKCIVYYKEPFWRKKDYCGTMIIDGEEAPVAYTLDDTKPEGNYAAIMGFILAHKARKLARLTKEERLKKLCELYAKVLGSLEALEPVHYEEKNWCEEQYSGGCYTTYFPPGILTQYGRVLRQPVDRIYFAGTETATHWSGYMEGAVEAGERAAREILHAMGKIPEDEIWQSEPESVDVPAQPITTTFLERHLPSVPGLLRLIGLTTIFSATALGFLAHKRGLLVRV

[4] = molecular target: T2, Amine oxidase [flavin-containing] A (Homo sapiens, UniProt P21397); experiment: Inhibition of recombinant human MAO-A assessed as inhibition of 4-hydroxyquinoline formation using kynuramine as substrate incubated for 20 mins by fluorescence assay
T2 sequence (P21397 whole entry): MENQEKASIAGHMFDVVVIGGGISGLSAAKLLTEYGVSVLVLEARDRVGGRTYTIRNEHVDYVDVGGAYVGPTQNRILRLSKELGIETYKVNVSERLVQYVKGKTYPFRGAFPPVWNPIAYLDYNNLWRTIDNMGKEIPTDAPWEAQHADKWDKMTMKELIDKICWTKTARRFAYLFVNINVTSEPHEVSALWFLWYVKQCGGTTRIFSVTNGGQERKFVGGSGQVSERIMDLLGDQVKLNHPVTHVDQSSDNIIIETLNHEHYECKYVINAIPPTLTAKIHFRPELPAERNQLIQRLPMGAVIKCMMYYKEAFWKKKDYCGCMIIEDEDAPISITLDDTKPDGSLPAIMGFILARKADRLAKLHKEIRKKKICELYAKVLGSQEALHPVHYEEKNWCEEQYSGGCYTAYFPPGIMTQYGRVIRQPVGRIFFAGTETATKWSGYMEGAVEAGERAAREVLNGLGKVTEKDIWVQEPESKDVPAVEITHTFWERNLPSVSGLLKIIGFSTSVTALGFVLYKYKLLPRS

MDA-MB-231 = experiment: Antiproliferative activity against human MDA-MB-231 cells assessed as reduction in cell viability incubated for 24 hrs by soft agar assay; type: functional, cell-based; settings: MDA-MB-231, 24 h
MCF7 = experiment: Antiproliferative activity against human MCF7 cells assessed as reduction in cell viability incubated for 24 hrs by soft agar assay; type: functional, cell-based; settings: MCF7, 24 h
Homo sapiens = species: Homo sapiens; experiment: Selectivity index, ratio of IC50 for inhibition of recombinant human MAO-A to IC50 for inhibition of recombinant human MAO-B
[5] = molecular target: Amyloid-beta precursor protein (Homo sapiens, UniProt P05067); experiment: Binding affinity to human brain homogenate amyloid beta by radioligand competition binding assay; type: tissue-based
Chain of Amyloid-beta precursor protein (P05067 whole entry): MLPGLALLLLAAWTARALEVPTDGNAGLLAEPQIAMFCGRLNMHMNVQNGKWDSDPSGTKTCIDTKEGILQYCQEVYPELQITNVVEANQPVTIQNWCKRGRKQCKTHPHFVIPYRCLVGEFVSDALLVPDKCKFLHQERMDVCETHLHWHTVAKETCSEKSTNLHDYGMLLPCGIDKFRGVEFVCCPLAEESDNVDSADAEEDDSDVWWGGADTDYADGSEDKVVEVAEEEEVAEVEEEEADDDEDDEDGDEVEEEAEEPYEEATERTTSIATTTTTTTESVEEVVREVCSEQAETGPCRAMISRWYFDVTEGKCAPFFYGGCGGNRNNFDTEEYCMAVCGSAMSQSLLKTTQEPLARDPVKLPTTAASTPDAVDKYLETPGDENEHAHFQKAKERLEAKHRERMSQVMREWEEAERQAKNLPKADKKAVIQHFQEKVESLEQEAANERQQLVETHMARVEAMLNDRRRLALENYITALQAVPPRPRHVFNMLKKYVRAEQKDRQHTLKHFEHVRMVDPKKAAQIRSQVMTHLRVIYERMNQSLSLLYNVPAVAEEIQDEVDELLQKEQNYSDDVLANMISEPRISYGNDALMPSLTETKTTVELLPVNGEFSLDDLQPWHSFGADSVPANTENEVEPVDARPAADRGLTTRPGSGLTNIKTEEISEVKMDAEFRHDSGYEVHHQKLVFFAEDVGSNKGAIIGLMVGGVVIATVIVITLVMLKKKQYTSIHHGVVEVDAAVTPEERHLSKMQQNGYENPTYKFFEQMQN

Candida parapsilosis = experiment: Antifungal activity against Candida parapsilosis assessed as reduction in fungal growth; type: functional; settings: Lodderomyces parapsilosis
[6] = Inhibition of Saccharomyces cerevisiae full-length ai5gamma intron self-splicing by fluorimetric assay
[7] = tested on: Human immunodeficiency virus 1; experiment: Antiviral activity against HIV-1 infected in human C8166 cells assessed as reduction in virus-induced cytopathic effect by MTT assay; type: functional, organism-based; settings: Human immunodeficiency virus 1, C8166
[8] = molecular target: Retinoic acid receptor alpha (Homo sapiens, UniProt P10276); experiment: Antagonist activity at Gal4-RARalpha transfected in HEK293 cells assessed as atRA-induced RARalpha transactivation and measured after 6 hrs by Dual-Light chemiluminiscence assay; type: cell-based
Chain of Retinoic acid receptor alpha (P10276 whole entry, the tested form may be a part): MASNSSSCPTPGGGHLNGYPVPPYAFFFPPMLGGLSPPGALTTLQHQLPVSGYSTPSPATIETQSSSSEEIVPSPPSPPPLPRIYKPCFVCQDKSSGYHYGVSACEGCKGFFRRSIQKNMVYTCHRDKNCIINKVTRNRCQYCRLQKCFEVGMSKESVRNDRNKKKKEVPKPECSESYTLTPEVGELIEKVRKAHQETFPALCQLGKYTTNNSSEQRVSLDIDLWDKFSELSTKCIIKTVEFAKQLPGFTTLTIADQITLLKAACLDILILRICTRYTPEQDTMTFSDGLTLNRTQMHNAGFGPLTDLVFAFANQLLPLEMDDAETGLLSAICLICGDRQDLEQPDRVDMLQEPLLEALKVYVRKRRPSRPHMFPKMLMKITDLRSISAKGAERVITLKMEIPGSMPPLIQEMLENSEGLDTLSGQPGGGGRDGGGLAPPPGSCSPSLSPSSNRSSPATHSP

[9] = molecular target: Serine/threonine-protein kinase AKT (Homo sapiens, UniProt P31751+Q9Y243+P31749); experiment: Inhibition of AKT (unknown origin); type: protein assay

SMILES: O=C1/C(=C/c2cc(-c3ccncc3)[nH]n2)Oc2cc(O)cc(O)c21
- IC50 [1]: 18 µM

SMILES: O=C1/C(=C/c2c[nH]c3ncccc23)Oc2cc(OCc3cccc(F)c3)ccc21
- IC50 [2]: 450 nM

SMILES: COc1cc(C2/C(=C/c3ccc(F)cc3)C(=O)c3cc(OC)c(OC)c(OC)c32)cc(OC)c1OC (centres undefined)
- IC50 (MDA-MB-231): 27 µM
- IC50 (MCF7): 27 µM

SMILES: O=C1/C(=C/c2cc(O)c(O)c(O)c2)Oc2cc(O)cc(O)c21
- MIC (Candida parapsilosis): 30 µM (≈ 9.07 µg/mL)
- Ki [6]: 5.8 µM

SMILES: O=C1/C(=C/c2ccc(O)c(O)c2)Oc2c1ccc(O)c2O
- EC50 [7]: 12 µM

SMILES: COCCOCOc1cc2c(cc1C13CC4CC(CC(C4)C1)C3)C(=O)/C(=C/c1ccc(C(=O)O)cc1)O2
- IC50 [8]: 4.42 µM

Continued, values first:

- IC50 [3]: 40 nM
- IC50 [4]: 0.18 µM
SMILES: COc1ccc2c(c1)C/C(=C\c1ccc(Br)o1)C2=O

- IC50 [3]: 2.6 nM
- IC50 [4]: > 100 µM
- Ratio IC50 (Homo sapiens): > 38000
SMILES: COc1ccc2c(c1)O/C(=C\n1ccc3ccccc31)C2=O

- Ki [5]: 240 nM
SMILES: CN(C)c1ccc(/C=C2\Nc3ccc(I)cc3C2=O)cc1

- IC50 [2]: 310 nM
SMILES: CN(Cc1ccccc1)Cc1c(O)ccc2c1O/C(=C\c1ccc3c(c1)OCO3)C2=O

- IC50 [9]: 207 nM
SMILES: Cc1ccc(C)c2c1C/C(=C\c1ccccc1)C2=O

- Ki [5]: 100 nM
SMILES: CN(C)c1ccc(/C=C2\Cc3cc(I)ccc3C2=O)cc1

- IC50 [3]: 350 nM
- IC50 [4]: 63 µM
SMILES: O=C1/C(=C(\O)c2cccc(Br)c2)Sc2ccccc21
